Reference: US9056923B2, “Mimetic peptides derived from collagen type IV and their use for treating angiogenesis- and lymphagiogenesis-dependent diseases” (THE JOHNS HOPKINS UNIVERSITY, priority 2010, dated 2015)
pIC50: −log10 of the molar value. Square brackets hold non-standard residues; d marks the D form. Ends that are not written are not given here. Peptide text beside a SMILES is read from it. AllylGly = C=CC[C@H](N)C(=O)O; Nle = CCCC[C@H](N)C(=O)O; Abu = CC[C@H](N)C(=O)O

Legend:
Format in all cases: cell-based, human
[1] = tested on: HUVEC; settings: for Activity in Proliferation / Proliferation Inhibition (IC50 in uM) / inhibition of proliferation: HUVEC; for Activity in Proliferation: Yes/No summary; for Proliferation Inhibition (IC50 in uM): summary tables 2-4, 6, 7
Method: Several assays were used to test the peptides discussed in the Examples herein. A colorimetric based proliferation assay using WST-1 (Roche, 11644807001) proliferation reagent was carried out using HUVEC cells. 2000 cells/well were plated in 96-well plates and allowed to adhere overnight. On the following day, the media was exchanged with fully supplemented media containing peptides or equivalent DMSO vehicle for the controls. Three days later the media containing the peptides was replaced with serum-free EBM-2 media containing WST-1 reagent and the plates were incubated for four hours as per the manufacturer's recommendations. Changes in color, due to the formazan dye resulted from the cleavage of the tetrazolium salt WST-1 by the mitochondrial succinate-tetrazolium reductase, were read on a Victor V fluorescence plate reader (Perkin Elmer, MA) by measuring the absorbance at 450 nm Dose response curves of percent live cells (in comparison to untreated cells but incubated in complete media with 0.2% DMSO) were created. Assays were performed in at least two independent replicates and each replicate was performed using three experimental triplicates.

[2] = tested on: HUVEC; test: HUVEC migration assay (RT-CIM); settings: for Migration Inhibition (50 uM): 50 uM peptide; for Activity in Migration: Yes/No summary, active = inhibitory potential greater than 30%
Method: The inhibitory potential of the peptides was measured using a real time migration assay system based on electrical impedance (RT-CIM, ACEA Biosciences, CA). CIM 16 well plates (Roche, 05665817001) are composed of a top and bottom chamber separated by a microporous (8 μm) polycarbonate membrane. The membrane was coated with fibronectin (20 μg/mL), and 45,000 cells/well in serum free media with or without peptides were added to the top compartment. Media with chemoattractant (i.e., fully supplemented EBM-2) was added to the bottom compartment of the chamber and the plate was incubated at 37° C. for 20 hours. The sensors integrated on the bottom side of the membrane monitor and continuously record changes in impedance as the cells move through the membrane. The RT-CIM technology allows for easy quantification of cell migration by monitoring the cell index derived from the measured impedances. Assays were performed in at least two independent replicates and each replicate was performed using two experimental duplicates.

[3] = tested on: HUVEC; settings: HUVEC; for Adhesion Inhibition (100 uM): 100 uM peptide; for Activity in Adhesion: Yes/No summary, active = inhibitory potential greater than 30%
Method: Similar to the migration assays, the inhibition activity of the peptide in cellular adhesion was assessed using the RT-CIM technology. In this case, 25,000 cells/well were plated in 16 wells E-plates (Roche, Basel Switzerland) in the presence or absence of the peptide. The adhesion was monitored over time (3 hours) by measuring changes in the electrical impedance, which is a direct measure of the cells adhering on the electrodes. […] Assays were performed in at least two independent replicates and each replicate was performed using two experimental duplicates.

[4] = tested on: HUVEC; test: HUVEC tube formation assay on Matrigel; settings: for Tube formation Inhibition (100 uM): 100 uM peptide; for Activity in Tube formation: Yes/No summary
Method: The compounds also were tested for their ability to inhibit tube formation, a process critical in angiogenesis. Endothelial cells spontaneously form a network of tubes when plated on extracts of extracellular matrix. This in vitro assay combines aspects of adhesion and migration and it is routinely used in angiogenesis research (Oliveira-Ferrer et al., 2008). The ability to inhibit tube formation is a comprehensive assessment of the anti-angiogenic potential. The protocol was described by Arnaoutova et al. (2009) and it consists of plating HUVEC on top of basement membrane extract and after incubation at 37° C. the cells naturally rearrange themselves in a network of tubes. Thus, 50 μL/well of Matrigel (BD Biosciences, San Jose, Calif.) was plated in a cold 96 well plate and incubated at 37° C. for 30 min for polymerization. 15,000 cells/well were added to the top of the gel and incubated in complete media in the presence or absence of peptide for 19 hours. Images were captured using the CCD Sensicam mounted on a Nikon microscope (Eclipse T-100). Assays were performed in at least two independent replicates and each replicate was performed using three experimental replicates and one image of a randomly chosen field was acquired per well.

Molecule: CCCC[C@H](NC(=O)[C@H](Cc1ccccc1)NC(=O)[C@@H]1CCCN1C(=O)[C@H](CCCC)NC(=O)[C@@H](NC(=O)[C@H](CO)NC(=O)[C@H](Cc1ccccc1)NC(=O)[C@H](CCCNC(=N)N)NC(=O)[C@H](CCCNC(=N)N)NC(=O)[C@@H](N)CC(C)C)[C@@H](C)O)C(=O)N[C@@H](Cc1ccccc1)C(=O)O [SP2014, LRRFSTNlePFNleF-OH] (H-LRRFST[Nle]PF[Nle]F-OH; N-terminus assumed)
- pIC50 [1]: < 4.00
- Activity in Proliferation [1]: No
- Proliferation Inhibition (IC50 in uM) [1]: Inactive
- Migration Inhibition (50 uM) [2]: Inactive
- Activity in Migration [2]: No
- inhibition of migration ([2]; concentration not given): absence of activity
- Adhesion Inhibition (100 uM) [3]: 2.9%
- Activity in Adhesion [3]: No
- inhibition of adhesion ([3]; concentration not given): absence of activity
- Tube formation Inhibition (100 uM) [4]: Inactive
- Activity in Tube formation [4]: No

Molecule: C=CC[C@H](NC(=O)[C@H](Cc1ccccc1)NC(=O)[C@H](CCSC)NC(=O)[C@H](Cc1ccccc1)NC(=O)[C@@H]1CCCN1C(=O)[C@H](CCSC)NC(=O)[C@@H](NC(=O)[C@H](CO)NC(=O)[C@H](Cc1ccccc1)NC(=O)[C@H](CCCNC(=N)N)NC(=O)[C@H](CCCNC(=N)N)NC(=O)[C@@H](N)CC(C)C)[C@@H](C)O)C(=O)N[C@@H](CC(N)=O)C(=O)N[C@H](C(=O)N[C@@H](CC(N)=O)C(=O)N[C@@H](CC(N)=O)C(=O)N[C@H](C(=O)N[C@@H](CC=C)C(=O)N[C@@H](CC(N)=O)C(=O)N[C@@H](Cc1ccccc1)C(N)=O)C(C)C)[C@@H](C)CC [SP2026, LRRFSTMPFMF(AllyGly)NINNV(AllyGly)NF] (H-LRRFSTMPFMF[AllylGly]NINNV[AllylGly]NF-NH2; N-terminus assumed)
- pIC50 [1]: 5.08
- inhibition of proliferation [1]: not affected
- Activity in Proliferation [1]: Yes
- Migration Inhibition (5 uM) ([2]; 5 uM peptide): 11.43%
- Activity in Migration [2]: Yes
- Adhesion Inhibition (100 uM) [3]: 96.61%
- Activity in Adhesion [3]: Yes
- Tube formation Inhibition (100 uM) [4]: Complete
- Activity in Tube formation [4]: Yes

Molecule: CC[C@H](NC(=O)[C@H](Cc1ccccc1)NC(=O)[C@H](CCSC)NC(=O)[C@H](Cc1ccccc1)NC(=O)[C@@H]1CCCN1C(=O)[C@H](CCSC)NC(=O)[C@@H](NC(=O)[C@H](CO)NC(=O)[C@H](Cc1ccccc1)NC(=O)[C@H](CCCNC(=N)N)NC(=O)[C@H](CCCNC(=N)N)NC(=O)[C@@H](N)CC(C)C)[C@@H](C)O)C(=O)N[C@@H](CC(N)=O)C(=O)N[C@H](C(=O)N[C@@H](CC(N)=O)C(=O)N[C@@H](CC(N)=O)C(N)=O)[C@@H](C)CC [SP2028, LRRFSTMPFMFAbuNINN] (H-LRRFSTMPFMF[Abu]NINN-NH2; N-terminus assumed)
- Activity in Proliferation [1]: Yes
- Migration Inhibition (50 uM) [2]: 48.87%
- Activity in Migration [2]: Yes
- Adhesion Inhibition (100 uM) [3]: 96.8%
- Activity in Adhesion [3]: Yes
- Tube formation Inhibition (100 uM) [4]: Complete
- Activity in Tube formation [4]: Yes
- inhibition of tube formation ([4]; concentration not given): Inhibition of tube formation

Molecule: FTNINNVTN-NH2 [SP2031, FTNINNVTN]
- inhibition of proliferation [1]: restored activity
- Activity in Proliferation [1]: Yes
- Migration Inhibition (50 uM) [2]: 10.21%
- Activity in Migration [2]: Yes
- migration inhibition ([2]; concentration not given): > 50%
- Adhesion Inhibition (100 uM) [3]: 85%
- Activity in Adhesion [3]: Yes
- adhesion inhibition (FIG. 16) ([3]; concentration not given): > 80
- Tube formation Inhibition (100 uM) [4]: Active
- Activity in Tube formation [4]: Yes

Molecule: LNRFSTMPF [SP2013, LNRFSTMPF]
- pIC50 [1]: < 4.00
- Activity in Proliferation [1]: No
- Proliferation Inhibition (IC50 in uM) [1]: Inactive
- Migration Inhibition (50 uM) [2]: Inactive
- Activity in Migration [2]: No
- inhibition of migration ([2]; concentration not given): absence of activity
- Adhesion Inhibition (100 uM) [3]: 0.3%
- Activity in Adhesion [3]: No
- inhibition of adhesion ([3]; concentration not given): absence of activity
- Tube formation Inhibition (100 uM) [4]: Inactive
- Activity in Tube formation [4]: No

Molecule: LRRFSTMP-NH2 [SP2008]
- Activity in Proliferation [1]: No
- Proliferation Inhibition (IC50 in uM) [1]: Inactive
- Migration Inhibition (50 uM) [2]: Inactive
- Activity in Migration [2]: No
- inhibition of migration ([2]; concentration not given): absence of activity
- Adhesion Inhibition (100 uM) [3]: −0.1%
- Activity in Adhesion [3]: No
- inhibition of adhesion ([3]; concentration not given): absence of activity
- Tube formation Inhibition (100 uM) [4]: Inactive
- Activity in Tube formation [4]: No

Molecule: LRRFSTMPFMF [SP2004, LRRFSTMPFMF]
- pIC50 [1]: < 4.00
- inhibition of proliferation [1]: inactive
- Activity in Proliferation [1]: No
- Proliferation Inhibition (IC50 in uM) [1]: Inactive
- Activity in Migration [2]: No
- Activity in Adhesion [3]: No
- Tube formation Inhibition (100 uM) [4]: Inactive
- Activity in Tube formation [4]: No
